In patent publication US5438052A, “Cephalosporin derivatives” (Hoffmann-La Roche Inc., priority 1991, dated 1995):
In brackets after ≈: the same amount, converted by molar mass.

Legend:
P. mirabilis 2117 = experiment: Minimum inhibitory concentration in vitro, agar dilution method; format: cell-based; details: Proteus mirabilis; P. mirabilis 2117, agar dilution; read-out: MIC
Source text: (§1) 1. Minimum Inhibitory Concentration in vitro
(§2) The activities ascertained, minimum inhibitory concentration (MIC) in μg/ml, are compiled in Table 1 hereinafter: […]

K. pneumoniae 418 = experiment: as above; format: cell-based; details: Klebsiella pneumoniae; K. pneumoniae 418, agar dilution; read-out: MIC
Source text: as §1, §2

P. aeruginosa 799/61 = experiment: as above; format: cell-based; details: Pseudomonas aeruginosa; P. aeruginosa 799/61, agar dilution; read-out: MIC
Source text: as §1, §2

E. coli 25922 [1] = experiment: as above; format: cell-based; details: Escherichia coli; E. coli 25922, agar dilution; read-out: MIC
Source text: as §1, §2

E. aerogenes CF153 = experiment: as above; format: cell-based; details: Klebsiella aerogenes; E. aerogenes CF153, agar dilution; read-out: MIC
Source text: as §1, §2

S. aureus 6538 = experiment: as above; format: cell-based; details: Staphylococcus aureus; S. aureus 6538, agar dilution; read-out: MIC
Source text: as §1, §2

P. aeruginosa 27853 = experiment: as above; format: cell-based; details: Pseudomonas aeruginosa; P. aeruginosa 27853, agar dilution; read-out: MIC
Source text: as §1, §2

K. oxytoca 1082 = experiment: as above; format: cell-based; details: Klebsiella oxytoca; K. oxytoca 1082, agar dilution; read-out: MIC
Source text: as §1, §2

P. aeruginosa 799/WT = experiment: as above; format: cell-based; details: Pseudomonas aeruginosa; P. aeruginosa 799/WT, agar dilution; read-out: MIC
Source text: as §1, §2

C. freundii 902 = experiment: as above; format: cell-based; details: Citrobacter freundii; C. freundii 902, agar dilution; read-out: MIC
Source text: as §1, §2

S. pyogenes 15 = experiment: as above; format: cell-based; details: Streptococcus pyogenes; S. pyogenes 15, agar dilution; read-out: MIC
Source text: as §1, §2

P. vulgaris 1028 = experiment: as above; format: cell-based; details: Proteus vulgaris; P. vulgaris 1028, agar dilution; read-out: MIC
Source text: as §1, §2

E. cloacae 908SSi = experiment: as above; format: cell-based; details: Enterobacter cloacae; E. cloacae 908SSi, agar dilution; read-out: MIC
Source text: as §1, §2

S. marcescens 69438 = experiment: as above; format: cell-based; details: Serratia marcescens; S. marcescens 69438, agar dilution; read-out: MIC
Source text: as §1, §2

P. aeruginosa BA = experiment: as above; format: cell-based; details: Pseudomonas aeruginosa; P. aeruginosa BA, agar dilution; read-out: MIC
Source text: as §1, §2

E. cloacae P99 = experiment: as above; format: cell-based; details: Enterobacter cloacae
Source text: as §1, §2

P. aeruginosa MK1184 = experiment: as above; format: cell-based; details: Pseudomonas aeruginosa; P. aeruginosa MK1184, agar dilution; read-out: MIC
Source text: as §1, §2

E. cloacae 908R = experiment: as above; format: cell-based; details: Enterobacter cloacae; E. cloacae 908R, agar dilution; read-out: MIC
Source text: as §1, §2

E. coli 25922 [2] = experiment: Experimental systemic septicaemia in the mouse; format: in vivo; details: Escherichia coli, sc, 96 h; E. coli 25922, albino mice, s.c. 1 and 3 hours after infection, survival after 4 days; read-out: ED50
Description: (§3) 2. Experimental systemic septicaemia in the mouse
(§4) An experimental systemic septicaemia was produced in albino mice weighing 16-20 g by intraperitoneally injecting into the experimental animals a sample of a dilute culture of the test organism which had been grown overnight. The sample administered is calculated such that the dosage administered is about 5-100 times greater than the dosage which is required to kill 50% of untreated experimental animals within 48 hours. The bacteria were injected as a suspension in the culture broth. Groups of 5 experimental animals each were used not only for the control, but also for the treatment for each dosage tested. The products in accordance with the invention were administered subcutaneously as a suspension in Tween 80 (2%), whereby the concentrations were chosen such that each experimental animal received 500 μl per administration. The respective concentrations were administered twice, namely 1 and 3 hours after the infection (in the case of P. aeruginosa three times, namely 1, 3 and 5 hours after the infection). The ED50 is that dosage which protects 50% of the experimental animals and was calculated by means of the Probit method on the basis of the survial rate after 4 days following the infection. The ED50 values in mg/kg s.c. (subcutaneous) for representatives of the class of substance in accordance with the invention are given in Table 2 hereinafter.

[3] = test system: Pseudomonas aeruginosa BA; experiment: Experimental systemic septicaemia in the mouse; format: in vivo; details: sc, 96 h, P. aeruginosa BA, albino mice, s.c. 1, 3 and 5 hours after infection, survival after 4 days, read-out: ED50
Description: as §3, §4

S. pneumoniae BA = experiment: Minimum inhibitory concentration in vitro, agar dilution method; format: cell-based; details: Streptococcus pneumoniae; S. pneumoniae BA, agar dilution; read-out: MIC
Source text: as §1, §2

Structure (SMILES) | MIC (P. mirabilis 2117) [µg/mL] | MIC (K. pneumoniae 418) [µg/mL] | MIC (P. aeruginosa 799/61) [µg/mL] | MIC (E. coli 25922 [1]) [µg/mL] | MIC (E. aerogenes CF153) [µg/mL] | MIC (S. aureus 6538) [µg/mL] | MIC (P. aeruginosa 27853) [µg/mL] | MIC (K. oxytoca 1082) [µg/mL] | MIC (P. aeruginosa 799/WT) [µg/mL] | MIC (C. freundii 902) [µg/mL] | MIC (S. pyogenes 15) [µg/mL] | MIC (P. vulgaris 1028) [µg/mL] | MIC (E. cloacae 908SSi) [µg/mL] | MIC (S. marcescens 69438) [µg/mL] | MIC (P. aeruginosa BA) [µg/mL] | MIC (E. cloacae P99) [µg/mL] | MIC (P. aeruginosa MK1184) [µg/mL] | MIC (E. cloacae 908R) [µg/mL] | ED50 (E. coli 25922 [2]) [mg/kg] | ED50 [3] [mg/kg] | also measured
CC(C)(O/N=C(\C(=O)N[C@@H]1C(=O)N2C(C(=O)O)=C(CSc3ncncc3-c3ccc(O)c(O)c3)CS[C@H]12)c1csc(N)n1)C(=O)NO [Example 19a, (6R,7R)-7-[(Z)-2-(2-amino-4-thiazolyl)-2-[[1-(hydroxycarbamoyl)-1-methylethoxy]imino]acetamido]-3-[[[5-(3,4-dihydroxyphenyl)-4-pyrimidinyl]thio]methyl]-8-oxo-5-thia-1-azabicyclo[4.2.0]oct-2-ene-2-carboxylic acid] | 0.25 (≈ 0.356 µM) | < 0.1 | < 0.1 | < 0.1 | 0.12 (≈ 0.171 µM) | 16 (≈ 22.8 µM) | 2 (≈ 2.85 µM) | 1 (≈ 1.42 µM) | 0.25 (≈ 0.356 µM) | 0.25 (≈ 0.356 µM) | 0.5 (≈ 0.711 µM) | 0.12 (≈ 0.171 µM) | 2 (≈ 2.85 µM) | 0.12 (≈ 0.171 µM) | 1 (≈ 1.42 µM) | 16 (≈ 22.8 µM) | 16 (≈ 22.8 µM) | 16 (≈ 22.8 µM) |  |  | 
CC(C)(O/N=C(\C(=O)N[C@@H]1C(=O)N2C(C(=O)O)=C(CS(=O)(=O)c3ccc(O)c(O)c3)CS[C@H]12)c1csc(N)n1)C(=O)NNC(=O)c1ccc(O)c(O)c1 [Example 47, (6R,7R)-7-[(Z)-2-(2-amino-4-thiazolyl)-2-[[1-[3-(3,4-dihydroxybenzoyl)carbazoyl]-1-methylethoxy]imino]acetamido]-3-[[(3,4-dihydroxyphenyl)sulphonyl]methyl]-8-oxo-5-thia-1-azabicyclo[4.2.0]oct-2-ene-2-carboxylic acid] | 0.12 (≈ 0.152 µM) | < 0.1 | 0.25 (≈ 0.316 µM) | 0.12 (≈ 0.152 µM) |  | 32 (≈ 40.4 µM) | 4 (≈ 5.05 µM) | 0.25 (≈ 0.316 µM) | 4 (≈ 5.05 µM) | 0.5 (≈ 0.631 µM) | 1 (≈ 1.26 µM) | 0.25 (≈ 0.316 µM) | 8 (≈ 10.1 µM) | 0.25 (≈ 0.316 µM) | 4 (≈ 5.05 µM) | 16 (≈ 20.2 µM) | > 32 | 1 (≈ 1.26 µM) | < 0.1 | 0.1 | MIC (S. pneumoniae BA): 1 µg/mL (≈ 1.26 µM)
Nc1nc(/C(=N/OCc2cc(Cl)c(O)c(O)c2Cl)C(=O)N[C@@H]2C(=O)N3C(C(=O)O)=C(CSc4nc(-c5ccccc5)ncc4-c4ccc(O)c(O)c4)CS[C@H]23)cs1 [Example 18, (6R,7R)-7-[(Z)-2-(2-amino-4-thiazolyl)-2-[[(2,5-dichloro-3,4-dihydroxybenzyl)oxy]imino]acetamido]-3-[[[5-(3,4-dihydroxyphenyl)-2-phenyl-4-pyrimidinyl]thio]methyl]-8-oxo-5-thia-1-azabicyclo[4.2.0]oct-2-ene-2-carboxylic acid] | < 0.1 | 0.12 (≈ 0.138 µM) | < 0.1 | 0.12 (≈ 0.138 µM) | 0.12 (≈ 0.138 µM) | > 32 | 2 (≈ 2.3 µM) | 0.25 (≈ 0.288 µM) | 0.12 (≈ 0.138 µM) | 0.12 (≈ 0.138 µM) | 1 (≈ 1.15 µM) | 0.12 (≈ 0.138 µM) | 8 (≈ 9.21 µM) | 1 (≈ 1.15 µM) | 1 (≈ 1.15 µM) | 16 (≈ 18.4 µM) | 2 (≈ 2.3 µM) | 2 (≈ 2.3 µM) |  |  | 
CC(C)(O/N=C(\C(=O)N[C@@H]1C(=O)N2C(C(=O)O)=C(CSc3nc(-c4ccccc4)ncc3-c3ccc(O)c(O)c3)CS[C@H]12)c1csc(N)n1)C(=O)NO [Example 17, (6R,7R)-7-[(Z)-2-(2-amino-4-thiazolyl)-2-[[1-(hydroxycarbamoyl)-1-methylethoxy]imino]acetamido]-3-[[[5-(3,4-dihydroxyphenyl)-2-phenyl-4-pyrimidinyl]thio]methyl]-8-oxo-5-thia-1-azabicyclo[4.2.0]oct-2-ene-2-carboxylic acid] | 0.5 (≈ 0.642 µM) | 0.25 (≈ 0.321 µM) | < 0.1 | < 0.1 | 0.25 (≈ 0.321 µM) | > 32 | 1 (≈ 1.28 µM) | 2 (≈ 2.57 µM) | 2 (≈ 2.57 µM) | 0.5 (≈ 0.642 µM) | 0.12 (≈ 0.154 µM) | 0.25 (≈ 0.321 µM) | 8 (≈ 10.3 µM) | 0.5 (≈ 0.642 µM) | 2 (≈ 2.57 µM) | 16 (≈ 20.5 µM) | 8 (≈ 10.3 µM) | 1 (≈ 1.28 µM) |  |  | 
CC(C)(O/N=C(\C(=O)N[C@@H]1C(=O)N2C(C(=O)O)=C(CS(=O)(=O)c3ccc(O)c(O)c3)CS[C@H]12)c1csc(N)n1)C(=O)NO [Example 21, (6R,7R)-7-[(Z)-2-(2-amino-4-thiazolyl)-2-[[(1-hydroxycarbamoyl)-1-methylethoxy]imino]acetamido]-3-[[(3,4-dihydroxyphenyl)sulphonyl]methyl]-8-oxo-5-thia-1-azabicyclo[4.2.0]oct-2-ene-2-carboxylic acid] | 1 (≈ 1.52 µM) | 0.5 (≈ 0.761 µM) | 0.25 (≈ 0.381 µM) | 1 (≈ 1.52 µM) |  | > 32 | 8 (≈ 12.2 µM) | 1 (≈ 1.52 µM) | 8 (≈ 12.2 µM) | 4 (≈ 6.09 µM) | 16 (≈ 24.4 µM) | 2 (≈ 3.05 µM) | 8 (≈ 12.2 µM) | 1 (≈ 1.52 µM) | 8 (≈ 12.2 µM) | 16 (≈ 24.4 µM) | > 32 | 8 (≈ 12.2 µM) | < 0.3 | 0.39 | MIC (S. pneumoniae BA): 8 µg/mL (≈ 12.2 µM)
